The source made the active and inactive calls. The calls are words filed in the database; no cut-off is given here.
Legend:
[1] = Sub-acute toxicity in C57BL/6J mouse assessed as abnormality in stomach at 100 mg/kg/day, po treated for 14 days consecutively by H and E staining based analysis; format: organism-based; conditions: in vivo, 336 h, time 14 day
[2] = Sub-acute toxicity in C57BL/6J mouse assessed as abnormality in lung at 100 mg/kg/day, po treated for 14 days consecutively by H and E staining based analysis; format: organism-based; conditions: in vivo, 336 h, time 14 day
Mus musculus [3] = experiment: Inhibition of irinotecan-triggered gut toxicity in C57BL/6J mouse bearing tumor cells assessed as increase in colonic length at 25 to 50 mg/kg/day, po treated for 14 days; format: functional, organism-based; conditions: dose 25-50 mg/kg/day, time 14.0 day
[4] = Permeability across apical to basal side in human Caco-2 cells assessed as cumulative penetration amount at 25 uM incubated for 120 mins by UPLC-MS/MS analysis; format: ADME, cell-based; conditions: caco-2, 2 h
Homo sapiens = species: Homo sapiens; experiment: Inhibition of human CES2A assessed as decrease in residual activity upto 1.6 nM; conditions: time <= 30.0 min
[5] = Sub-acute toxicity in C57BL/6J mouse assessed as abnormality in liver at 100 mg/kg/day, po treated for 14 days consecutively by H and E staining based analysis; format: organism-based; conditions: in vivo, 336 h, time 14 day
Cytochrome P450 2E1 = Cytochrome P450 2E1 (Homo sapiens, UniProt P05181); experiment: Inhibition of CYP2E1 in human liver microsomes using chlorzoxazone as substrate upto 10 uM; format: ADME, Microsome
Sequence of Cytochrome P450 2E1 (P05181 whole entry): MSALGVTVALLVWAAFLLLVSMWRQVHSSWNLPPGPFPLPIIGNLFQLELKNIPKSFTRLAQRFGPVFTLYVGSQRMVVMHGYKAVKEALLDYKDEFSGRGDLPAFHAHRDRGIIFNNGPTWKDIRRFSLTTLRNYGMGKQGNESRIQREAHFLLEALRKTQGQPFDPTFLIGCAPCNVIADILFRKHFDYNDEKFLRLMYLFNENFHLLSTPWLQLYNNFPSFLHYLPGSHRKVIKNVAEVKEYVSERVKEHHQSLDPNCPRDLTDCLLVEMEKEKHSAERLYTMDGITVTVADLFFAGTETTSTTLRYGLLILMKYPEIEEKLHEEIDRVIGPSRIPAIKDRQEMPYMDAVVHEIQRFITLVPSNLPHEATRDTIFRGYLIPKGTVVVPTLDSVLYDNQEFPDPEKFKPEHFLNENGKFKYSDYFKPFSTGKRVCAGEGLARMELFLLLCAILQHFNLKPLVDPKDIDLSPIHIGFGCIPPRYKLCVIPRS

[6] = Permeability across apical to basal side in human Caco-2 cells assessed as cumulative penetration amount at 50 uM incubated for 120 mins by UPLC-MS/MS analysis; format: ADME, cell-based; conditions: caco-2, 2 h
Mus musculus [7] = experiment: Inhibition of irinotecan-triggered gut toxicity in C57BL/6J mouse bearing tumor cells assessed as increase in body weight at 25 to 50 mg/kg/day, po treated for 14 days; format: functional, organism-based; conditions: dose 25-50 mg/kg/day, time 14.0 day
Cytochrome P450 2D6 = Cytochrome P450 2D6 (Homo sapiens, UniProt P10635); experiment: Inhibition of CYP2D6 in human liver microsomes using dextromethorphan as substrate upto 10 uM; format: ADME, Microsome
Sequence of Cytochrome P450 2D6 (P10635 whole entry): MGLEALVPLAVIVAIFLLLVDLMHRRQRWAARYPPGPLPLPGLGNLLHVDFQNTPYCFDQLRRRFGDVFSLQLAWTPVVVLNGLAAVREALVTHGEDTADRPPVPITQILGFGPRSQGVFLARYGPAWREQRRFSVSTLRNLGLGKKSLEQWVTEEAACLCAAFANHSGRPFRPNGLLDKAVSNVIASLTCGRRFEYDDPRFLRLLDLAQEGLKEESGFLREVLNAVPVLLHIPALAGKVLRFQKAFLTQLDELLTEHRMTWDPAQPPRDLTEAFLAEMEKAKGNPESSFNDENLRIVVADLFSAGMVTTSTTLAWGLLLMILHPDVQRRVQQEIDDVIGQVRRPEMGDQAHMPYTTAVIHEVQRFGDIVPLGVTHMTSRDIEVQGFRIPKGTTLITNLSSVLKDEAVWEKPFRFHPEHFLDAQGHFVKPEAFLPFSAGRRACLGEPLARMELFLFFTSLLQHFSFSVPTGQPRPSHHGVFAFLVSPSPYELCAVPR

[8] = Drug distribution in colon of C57BL/6J mouse at 100 mg/kg, po administered as single dose measured for 0.5 to 3 hrs by UHPLC-Q-Orbitrap HRMS analysis; format: ADME, organism-based; conditions: in vivo, time 0.5-3 hrs
[9] = Drug distribution in serum of C57BL/6J mouse at 100 mg/kg, po administered as single dose measured for 0.5 to 3 hrs by UHPLC-Q-Orbitrap HRMS analysis; format: ADME, organism-based; conditions: in vivo, time 0.5-3 hrs
[10] = Efflux ratio of apparent permeability across basal to apical side over apical to basal side in human Caco-2 cells at 100 uM incubated for 120 mins by UPLC-MS/MS analysis; format: ADME, cell-based
[11] = Drug distribution in deep organs of C57BL/6J mouse at 100 mg/kg, po administered as single dose measured for 0.5 to 3 hrs by UHPLC-Q-Orbitrap HRMS analysis; format: ADME, organism-based, Deep organ; conditions: in vivo, time 0.5-3 hrs
Cytochrome P450 3A4 = Cytochrome P450 3A4 (Homo sapiens, UniProt P08684); experiment: Inhibition of CYP3A4 in human liver microsomes using testosterone as substrate upto 10 uM; format: ADME, Microsome
Sequence of Cytochrome P450 3A4 (P08684 whole entry): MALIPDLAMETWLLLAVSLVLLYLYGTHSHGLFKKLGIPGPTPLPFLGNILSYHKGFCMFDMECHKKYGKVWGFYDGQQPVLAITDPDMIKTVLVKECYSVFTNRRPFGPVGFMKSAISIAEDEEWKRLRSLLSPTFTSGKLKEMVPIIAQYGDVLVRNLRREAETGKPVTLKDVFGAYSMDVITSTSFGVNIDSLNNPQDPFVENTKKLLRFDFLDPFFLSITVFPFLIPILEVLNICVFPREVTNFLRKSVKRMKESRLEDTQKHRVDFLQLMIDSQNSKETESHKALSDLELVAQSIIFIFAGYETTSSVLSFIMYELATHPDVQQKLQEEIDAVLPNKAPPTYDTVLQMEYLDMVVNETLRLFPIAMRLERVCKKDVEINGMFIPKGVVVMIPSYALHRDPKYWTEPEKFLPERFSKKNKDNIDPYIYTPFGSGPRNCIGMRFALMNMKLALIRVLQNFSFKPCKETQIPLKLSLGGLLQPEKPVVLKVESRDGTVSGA

HepG2 [12] = experiment: Cytotoxicity against human HepG2 cells at <20 uM; format: toxicity, cell-based; conditions: hepg2, 20 µM
[13] = Inhibition of human CES1A using NLMe as substrate incubated for 3 mins by chemiluminescence analysis
Cholinesterase = Cholinesterase (Homo sapiens, UniProt P06276); experiment: Inhibition of human BuChE using BTCI as substrate incubated for 33 mins by Ellman's method
Sequence of Cholinesterase (P06276 whole entry): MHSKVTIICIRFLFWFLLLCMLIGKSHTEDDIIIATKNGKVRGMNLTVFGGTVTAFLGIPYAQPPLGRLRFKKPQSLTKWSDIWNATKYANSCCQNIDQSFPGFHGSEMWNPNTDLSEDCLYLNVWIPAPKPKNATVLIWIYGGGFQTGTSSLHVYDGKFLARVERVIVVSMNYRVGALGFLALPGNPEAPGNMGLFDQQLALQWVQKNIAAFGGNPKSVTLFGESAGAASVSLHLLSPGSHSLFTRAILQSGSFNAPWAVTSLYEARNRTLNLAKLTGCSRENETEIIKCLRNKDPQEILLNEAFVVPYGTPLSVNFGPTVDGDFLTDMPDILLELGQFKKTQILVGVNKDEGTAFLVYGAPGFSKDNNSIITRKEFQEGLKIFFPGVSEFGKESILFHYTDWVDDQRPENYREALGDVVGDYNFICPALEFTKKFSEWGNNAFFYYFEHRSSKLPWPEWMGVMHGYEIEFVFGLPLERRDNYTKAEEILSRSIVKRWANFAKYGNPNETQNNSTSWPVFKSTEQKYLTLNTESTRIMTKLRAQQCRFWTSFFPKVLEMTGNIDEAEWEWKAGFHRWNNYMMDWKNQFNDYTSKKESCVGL

[14] = Sub-acute toxicity in C57BL/6J mouse assessed as abnormality in kidney at 100 mg/kg/day, po treated for 14 days consecutively by H and E staining based analysis; format: organism-based; conditions: in vivo, 336 h, time 14 day
[15] = Efflux ratio of apparent permeability across basal to apical side over apical to basal side in human Caco-2 cells at 50 uM incubated for 120 mins by UPLC-MS/MS analysis; format: ADME, cell-based
[16] = Chemical stability in artificial gastrointestinal fluid at 10 uM measured upto 120 mins by UPLC-MS/MS analysis; format: physicochemical; conditions: 2 h
[17] = Apparent permeability across basal to apical side in human Caco-2 cells at 50 uM incubated for 120 mins by UPLC-MS/MS analysis; format: ADME, cell-based
Mus musculus [18] = experiment: Inhibition of irinotecan-triggered gut toxicity in C57BL/6J mouse bearing tumor cells assessed as increase in claudin-1 level in colon tissue at 25 to 50 mg/kg/day, po treated for 14 days by immunofluorescence based analysis; format: functional, organism-based; conditions: dose 25-50 mg/kg/day, time 14.0 day
Caco-2 = experiment: Cytotoxicity against human Caco-2 cells at 100 uM incubated for 24 hrs by CCK8 assay; format: toxicity, cell-based; conditions: caco-2, 24 h
Mus musculus [19] = experiment: Inhibition of irinotecan-triggered gut toxicity in C57BL/6J mouse bearing tumor cells assessed as decrease in SN38 level in colon tissue at 25 to 50 mg/kg/day, po treated for 14 days; format: functional, organism-based; conditions: dose 25-50 mg/kg/day, time 14.0 day
Mus musculus [20] = experiment: Inhibition of irinotecan-triggered gut toxicity in C57BL/6J mouse bearing tumor cells assessed as decrease in TNF-alpha level in colon tissue administered orally treated for 14 days; format: functional, organism-based; conditions: dose 25-50 mg/kg/day, route po, time 14.0 day
Cytochrome P450 2C9 = Cytochrome P450 2C9 (Homo sapiens, UniProt P11712); experiment: Inhibition of CYP2C9 in human liver microsomes using diclofenac as substrate upto 10 uM; format: ADME, Microsome
Sequence of Cytochrome P450 2C9 (P11712 whole entry): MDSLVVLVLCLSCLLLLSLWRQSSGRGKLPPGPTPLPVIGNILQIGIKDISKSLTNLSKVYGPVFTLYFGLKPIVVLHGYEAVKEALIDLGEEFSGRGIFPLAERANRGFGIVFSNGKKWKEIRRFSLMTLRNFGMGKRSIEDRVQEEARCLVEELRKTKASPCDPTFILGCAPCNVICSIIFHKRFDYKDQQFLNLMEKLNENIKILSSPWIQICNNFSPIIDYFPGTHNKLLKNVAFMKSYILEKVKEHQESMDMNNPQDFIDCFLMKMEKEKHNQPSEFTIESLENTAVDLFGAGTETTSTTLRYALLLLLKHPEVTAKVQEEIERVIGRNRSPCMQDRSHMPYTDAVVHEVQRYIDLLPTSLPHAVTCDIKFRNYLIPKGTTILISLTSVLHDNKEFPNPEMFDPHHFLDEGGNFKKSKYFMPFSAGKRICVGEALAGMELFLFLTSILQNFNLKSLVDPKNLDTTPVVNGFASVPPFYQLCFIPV

HepG2 [21] = experiment: (§1) Inhibition of CES2A in human HepG2 cells using NCEN as substrate assessed as decrease in green fluorescence preincubated fir 1 hr followed by substrate addition measured after 45 mins by Hoechst33342 staining based analysis; format: cell-based; conditions: time 105.0 min
[22] = as §1; format: cell-based
[23] = Apparent permeability across apical to basal side in human Caco-2 cells at 100 uM incubated for 120 mins by UPLC-MS/MS analysis; format: ADME, cell-based
[24] = Sub-acute toxicity in C57BL/6J mouse assessed as change in AST level at 100 mg/kg/day, po treated for 14 days consecutively; format: organism-based; conditions: in vivo, 336 h, time 14 day
Mus musculus [25] = experiment: Inhibition of irinotecan-triggered gut toxicity in C57BL/6J mouse bearing tumor cells assessed as decrease in IL-1beta level in colon tissue administered orally treated for 14 days; format: functional, organism-based; conditions: dose 25-50 mg/kg/day, route po, time 14.0 day
[26] = Permeability across basal to apical side in human Caco-2 cells assessed as cumulative penetration amount at 50 uM incubated for 120 mins by UPLC-MS/MS analysis; format: ADME, cell-based; conditions: caco-2, 2 h
[27] = Drug distribution in ileum of C57BL/6J mouse at 100 mg/kg, po administered as single dose measured for 0.5 to 3 hrs by UHPLC-Q-Orbitrap HRMS analysis; format: ADME, organism-based; conditions: in vivo, time 0.5-3 hrs
[28] = Apparent permeability across apical to basal side in human Caco-2 cells at 50 uM incubated for 120 mins by UPLC-MS/MS analysis; format: ADME, cell-based
Mus musculus [29] = experiment: Inhibition of irinotecan-induced anti-tumor activity in C57BL/6J mouse bearing tumor cells assessed as increase in tumor volume at 25 to 50 mg/kg/day, po treated for 14 days; format: functional, organism-based; conditions: dose 25-50 mg/kg/day, time 14.0 day
Prothrombin = Prothrombin (Homo sapiens, UniProt P00734); experiment: Inhibition of human Thrombin using Z-GGRAMC as substrate preincubated for 3 mins followed by substrate addition by fluorescence based assay

CCN(C)C(=O)Oc1ccc(C(=O)N2CCC(Cc3ccccc3)CC2)cc1OC
Activity [1]: Non-toxic | Activity [2]: Non-toxic | inhibition (Mus musculus [3]): Active | Activity [4]: 3.17 µM | inhibition (Homo sapiens): Time-dependent-effect | Activity [5]: Non-toxic | inhibition (INH) (Cytochrome P450 2E1): Not_active | Activity [6]: 6.31 µM | inhibition (Mus musculus [7]): Active | inhibition (INH) (Cytochrome P450 2D6): Not_active | Drug uptake [8]: Active | Drug uptake [9]: Not_active | efflux ratio at 2 h, 100 µM [10]: 0.66 | Drug uptake [11]: Not_active | inhibition (INH) (Cytochrome P450 3A4): Not_active | Activity (HepG2 [12]): Non-toxic | IC50 [13]: 4400 nM | IC50 (Cholinesterase): 834 nM | Activity [14]: Non-toxic | efflux ratio at 2 h, 50 µM [15]: 0.67 | Stability [16]: Stable | Papp B→A at 2 h, 50 µM [17]: 10.5 ×10⁻⁶ cm/s | inhibition (Mus musculus [18]): Active | Activity (Caco-2): Non-toxic | inhibition (Mus musculus [19]): Active | inhibition (Mus musculus [20]): Active | inhibition (INH) (Cytochrome P450 2C9): Not_active | inhibition (HepG2 [21]): Dose-dependent-effect | IC50 [22]: 0.36 nM | Papp A→B at 2 h, 100 µM [23]: 11.7 ×10⁻⁶ cm/s | Activity [24]: Non-toxic | inhibition (Mus musculus [25]): Active | Activity [26]: 4.23 µM | Drug uptake [27]: Active | Papp A→B at 2 h, 50 µM [28]: 15.6 ×10⁻⁶ cm/s | inhibition (Mus musculus [29]): inactive | IC50 (Prothrombin): > 10000 nM
